Key:
Carbonic anhydrase 9 = Carbonic anhydrase 9 (Homo sapiens, UniProt Q16790); test: Inhibition of human carbonic anhydrase 9 preincubated for 15 mins by CO2 hydration stopped-flow assay
[1] = target: Carbonic anhydrase 5B, mitochondrial (Homo sapiens, UniProt Q9Y2D0)
Description: Inhibition of human carbonic anhydrase 5B preincubated for 15 mins by CO2 hydration stopped-flow assay

Carbonic anhydrase 3 = Carbonic anhydrase 3 (Homo sapiens, UniProt P07451); test: Inhibition of human carbonic anhydrase 3 preincubated for 15 mins by CO2 hydration stopped-flow assay
Carbonic anhydrase 6 = Carbonic anhydrase 6 (Homo sapiens, UniProt P23280); test: Inhibition of human carbonic anhydrase 6 preincubated for 15 mins by CO2 hydration stopped-flow assay
Sequence of Carbonic anhydrase 6 (P23280 whole entry): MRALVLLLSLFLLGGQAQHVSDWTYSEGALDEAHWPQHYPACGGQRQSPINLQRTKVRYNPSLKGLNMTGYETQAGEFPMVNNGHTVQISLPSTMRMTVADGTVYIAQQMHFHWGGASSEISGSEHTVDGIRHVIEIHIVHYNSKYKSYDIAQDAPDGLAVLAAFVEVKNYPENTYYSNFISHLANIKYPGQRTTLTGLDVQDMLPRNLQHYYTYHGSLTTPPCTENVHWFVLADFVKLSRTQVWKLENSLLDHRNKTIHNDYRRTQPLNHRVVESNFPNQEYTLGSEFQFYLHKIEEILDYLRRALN

Sequence of Carbonic anhydrase 3 (P07451 whole entry): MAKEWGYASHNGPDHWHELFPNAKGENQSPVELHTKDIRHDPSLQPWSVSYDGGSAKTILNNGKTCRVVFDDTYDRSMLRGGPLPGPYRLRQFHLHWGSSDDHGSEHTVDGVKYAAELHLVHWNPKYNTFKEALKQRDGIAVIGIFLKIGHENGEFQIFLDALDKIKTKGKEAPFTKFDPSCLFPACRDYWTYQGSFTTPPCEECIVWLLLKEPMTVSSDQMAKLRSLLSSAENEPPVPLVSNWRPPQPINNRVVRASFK
Sequence of Carbonic anhydrase 5B, mitochondrial (Q9Y2D0 whole entry): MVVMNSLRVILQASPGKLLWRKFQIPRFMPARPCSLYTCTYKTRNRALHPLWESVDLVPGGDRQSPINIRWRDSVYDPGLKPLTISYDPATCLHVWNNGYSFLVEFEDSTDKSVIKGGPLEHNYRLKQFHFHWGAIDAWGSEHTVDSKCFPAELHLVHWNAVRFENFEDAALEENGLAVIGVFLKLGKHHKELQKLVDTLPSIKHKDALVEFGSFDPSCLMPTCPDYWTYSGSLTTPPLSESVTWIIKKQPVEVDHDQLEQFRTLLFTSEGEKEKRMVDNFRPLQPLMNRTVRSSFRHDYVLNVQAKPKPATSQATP

Compound | Ki (Carbonic anhydrase 9) [µM] | Ki [1] [µM] | Ki (Carbonic anhydrase 3) [µM] | Ki (Carbonic anhydrase 6) [µM]
O=C(/C=C/c1cccc(O)c1)C[C@@H]1O[C@H](CO)[C@H](O)[C@H](O)[C@H]1O | 9.2 | > 100 | > 100 | –
CC(=O)OC[C@H]1O[C@@H](CC(=O)/C=C/c2cccc(O)c2)[C@H](OC(C)=O)[C@@H](OC(C)=O)[C@H]1OC(C)=O | 3.3 | – | > 100 | –
CC(=O)OC[C@H]1O[C@@H](CC(=O)/C=C/c2ccc(O)cc2)[C@H](OC(C)=O)[C@@H](OC(C)=O)[C@H]1OC(C)=O | 2.9 | – | > 100 | –
O=C(/C=C/c1ccc(O)cc1)C[C@@H]1O[C@H](CO)[C@@H](O)[C@H](O)[C@H]1O | 8.2 | > 100 | > 100 | > 100
O=C(/C=C/c1cccc(O)c1)C[C@@H]1O[C@H](CO)[C@@H](O)[C@H](O)[C@H]1O | 4.5 | > 100 | > 100 | –
O=C(/C=C/c1ccc(O)cc1)C[C@@H]1O[C@H](CO)[C@H](O)[C@H](O)[C@H]1O | 8.2 | > 100 | 8.4 | > 100
CC(=O)OC[C@H]1O[C@@H](CC(=O)/C=C/c2ccc(O)cc2)[C@H](OC(C)=O)[C@@H](OC(C)=O)[C@@H]1OC(C)=O | 5.9 | – | > 100 | –
CC(=O)OC[C@H]1O[C@@H](CC(=O)/C=C/c2cccc(O)c2)[C@H](OC(C)=O)[C@@H](OC(C)=O)[C@@H]1OC(C)=O | 5.2 | – | > 100 | –

From ChEMBL document CHEMBL2331241, “Synthesis of C-cinnamoyl glycosides and their inhibitory activity against mammalian carbonic anhydrases” (Bioorg Med Chem, 2013)
